Laboratory results as given in patent US5230998A, “Method for the prescreening of drugs targeted to the V3 hypervariable loop of the HIV-1 envelope glycoprotein gp 120” (priority 1991, dated 1993).
“Also recorded” adds a separate entry of the source.

Assays:
peptide (492-518) = peptide (492-518) (Human immunodeficiency virus type 1 BH10, UniProt P03375); assay: Inhibition by ATA of reaction between peptide and homologous antibodies (FIG. 1B); type: binding, HIV-1 BH 10; conditions: ATA 50 μg/ml
Experimental: (§1) FIG. 1 comprises four bar graphs concerning the interaction of aurintricarboxylic acid (ATA) with the V3 hypervariable loop of gp120 and with distinct peptides derived from the sequence of gp160. FIG. 1A: Inhibitory effect of ATA (50 μg/ml) on the reaction of antibodies to peptides from the sequence of HIV-1 gp160 with gp120 or gp160. gp120-coated wells were used for antisera to peptides from gp120 and gp160-coated wells were used with antisera to peptides from gp41. FIG. 1B: Inhibitory effect of ATA (50 μg/ml) on the reaction between antibodies to peptides from gp120/gp41 and homologous peptides. FIG. 1C: binding of ATA to wells coated with distinct peptides from the sequence of gp160, as determined by subsequent binding of anti-ATA antibodies. FIG. ID: Net electric charge of peptides from the sequence of gp160, determined by subtracting the number of aspartic (D) and glutamic (E) residues from the sum of lysine (K) and arginine (R) residues present in distinct segments of the gp160 sequence. The horizontal dotted line indicates the boundary between non-significant and significant inhibition, established from three times repeated experiments.
(§2) Wells of 96 well polystyrene plates (Immulon 2, Dynatech Laboratories, Inc., Chantilly, Va.) were coated with synthetic peptides (200 μl; 20μg/ml in 0.1 M Tris-HCl, pH 8.8) overnight at 20° C. The peptides were from the sequence of HIV-1, clone BH 10 envelope glycoproteins gp120 and gp41 (Neurath, A. R., Strick, N., and Lee, E. Y. S. (1990), "B-cell Epitope Mapping of Human Immunodeficiency virus (HIV-1) Envelope Glycoprotein with Long (19 to 36-residue) Synthetic Peptides", J. Gen. Virol., 71., 85-95) and from V3 hypervariable loops of 21 distinct HIV-1 isolates (clones) Neurath, A. R., and Strick, N., (1990), "Confronting the Hypervariability of an Immunodominant Epitope Eliciting Virus Neutralizing Antibodies from the Envelope Glycoprotein of the Human Immunodeficiency Virus Type 1 (HIV-1)", Molec. Immunol., 27, 539-549. The latter peptides corresponded to full-length V3 loops generated by disulfide bonds between N- and C- terminal cysteine residues. After washing with 0.14 M NaCl, 0.01 M Tris, 0.02% NaN3 (TS), the wells were postcoated with a mixture of bovine serum albumin (BSA) and gelatine (10 and 2.5 mg/ml, respectively) in TS. […]
(§3) To define sites on gp120/gp41 reacting with ATA, the inhibitory effect of this compound was studied by RIA tests using gp120- and gp160-coated wells, respectively, and antisera (final dilutions 1:150) against synthetic peptides from the entire sequence of gp120/gp41 of HIV-1 BH 10. […] Attached rabbit IgG was detected using ^125 I-labeled anti-rabbit IgG, as described before (Neurath et al., 1990, J. Gen. Virol., 71, 85-95). […]

[1] = target: T1, V3 hypervariable loop peptide (303-338) (Human immunodeficiency virus type 1 BH10, UniProt P03375); assay: as above; type: binding, HIV-1 BH 10; conditions: ATA 50 μg/ml
T1 construct: cut from Env gp160
Experimental: as §1, §2, §3

peptide (331-361) = peptide (331-361) (Human immunodeficiency virus type 1 BH10, UniProt P03375); assay: as above; type: binding, HIV-1 BH 10; conditions: ATA 50 μg/ml
Experimental: as §1, §2, §3

[2] = target: peptide (845-862) from gp41 (Human immunodeficiency virus type 1 BH10, UniProt P03375); assay: as above; type: binding, HIV-1 BH 10; conditions: ATA 50 μg/ml
Experimental: as §1, §2, §3

CD4 receptor = conditions: literature; listed as ATA; cited from earlier work
HIV-1 [3] = conditions: literature; listed as ATA; cited from earlier work
HIV-1 [4] = assay: HIV-1 infection marker: viral DNA in ATA-treated cultures; type: cell-based
Excerpt: The combined effects of AZT and ATA, and other compounds shown to be effective in Table 1, hereinbelow, against HIV-1 are also contemplated by the present invention, since synergistic drug combinations would offer means for alleviating toxicity due to AZT, observed in clinical settings. Contemplated combinations include, for example, AZT+ATA, AZT+chlorin e6; AZT+deuteroporphyrin IX, 2,4(4,2) hydroxyethyvinyl; and AZT+meso-tetra(4-carboxyphenyl)porphine.

[5] = system: gp120 expressed on the surface of HIV-1-infected cells; conditions: literature; cited from earlier work
BH 10 peptide = target: T2, BH 10 peptide (Human immunodeficiency virus type 1 BH10, UniProt P03375); assay: Attachment of ATA to V3 hypervariable loop peptides of distinct HIV-1 isolates (FIG. 4B); type: binding, HIV-1 BH 10
T2 construct: cut from Env gp160
Experimental: FIG. 4 comprises bar graphs depicting the interaction of aurintricarboxylic acid (ATA) with full length V3 hypervariable loop peptides from gp120 of distinct HIV-1 isolates (clones). FIG. 4A: Inhibitory effects of ATA (50 μg/ml) on the reaction between peptide-coated wells and homologous anti-peptide antisera (diluted 1:1,000). FIG. 4B: attachment of ATA to distinct V3 hypervariable loop peptide-coated wells as determined by double antibody RIA using rabbit antiserum against ATA.
ATA was also added to a control peptide, (518-542), and to wells coated with gelatin only. After incubation for 4 hours at 20° C., excess ATA was removed, the wells were washed with TS and attached ATA was determined by double-antibody RIA using serial dilutions of the anti-ATA antiserum. Similar tests were carried out with serum from the same rabbit before immunization with the ATA-BSA conjugate; the corresponding results (100-450 cpm) were subtracted from cpm corresponding to RIA results obtained with the anti-ATA antiserum. For additional assays aimed at determining the binding of ATA to synthetic peptides from gp120 and gp41 of HIV-1 BH 10 and to V3 hypervariable loop peptides from 20 additional HIV-1 isolates, anti-ATA antiserum was used at a final dilution of 1:800.

T1 sequence (P03375 296-331): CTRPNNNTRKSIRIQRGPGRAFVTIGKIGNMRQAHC
T2 sequence (P03375 296-331): as above
Sequence of peptide (845-862) from gp41 (P03375 512-856): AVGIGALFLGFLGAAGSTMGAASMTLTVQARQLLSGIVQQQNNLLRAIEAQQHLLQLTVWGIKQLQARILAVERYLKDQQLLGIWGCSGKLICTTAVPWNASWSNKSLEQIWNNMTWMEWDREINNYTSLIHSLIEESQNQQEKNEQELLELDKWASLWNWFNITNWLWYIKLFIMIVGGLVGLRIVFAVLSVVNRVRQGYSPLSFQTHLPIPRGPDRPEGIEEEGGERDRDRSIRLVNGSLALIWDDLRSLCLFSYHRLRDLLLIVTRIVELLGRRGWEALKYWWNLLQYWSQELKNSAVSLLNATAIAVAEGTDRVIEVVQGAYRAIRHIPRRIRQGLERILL
Sequence of peptide (331-361) (P03375 324-354): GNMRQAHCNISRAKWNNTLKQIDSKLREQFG
Sequence of peptide (492-518) (P03375 492-518): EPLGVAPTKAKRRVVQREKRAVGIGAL

O=C(O)C1=CC(=C(c2ccc(O)c(C(=O)O)c2)c2ccc(O)c(C(=O)O)c2)C=CC1=O [substance #122, aurintricarboxylic acid]
inhibition of reaction of peptide with homologous antibodies (peptide (492-518)): did not inhibit the reaction between this peptide and homologous anti-peptide antibodies
inhibition of reaction of peptide with homologous antibodies [1]: most dramatically inhibited
inhibition of reaction of peptide with homologous antibodies (peptide (331-361)): Inhibition was also observed
inhibition of reaction of peptide with homologous antibodies [2]: Inhibition was also observed
inhibition of the interaction with CD4 receptor (CD4 receptor): inhibited the interaction of the CD4 receptor for HIV-1; also recorded: inhibiting the interaction between HIV-1 virions and cellular CD4 receptors
inhibition of HIV-1 replication / antiviral activity (HIV-1 [3]): inhibited the replication of HIV-1 in vitro; also recorded: inhibit the cytopathogenicity and replication of the human immunodeficiency virus type 1
viral DNA in treated cultures (HIV-1 [4]): almost undetectable
inhibition of the reaction of gp120 on infected cells with monoclonal anti-gp120 antibodies [5]: inhibit the reaction of gp120 expressed on the surface of HIV-1-infected cells with monoclonal anti-gp120 antibodies
ATA binding to V3 peptide (BH 10 peptide): bound the highest levels of ATA
